#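 All cell lines were grown in 96-well plates and treated with compound for 48 hours. GI50 is the concentration that inhibits growth by half. TGI: total growth inhibition.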
# How the values were obtained:
# Experiment in all cases: inhibition of tumour cell growth, NCI panel, 48 h
# [1] = system: CCRF-CEM leukemia
# [2] = system: HOP-92 NSCLC
# [3] = system: M14 melanoma
# [4] = system: SK-OV-3 ovarian
# [5] = system: SN12C renal
# [6] = system: A498 renal
# [7] = system: MDA-MB-231 breast
# [8] = system: RXF 393 renal
# [9] = system: SK-MEL-28 melanoma
# [10] = system: COLO 205 colon
# [11] = system: OVCAR-3 ovarian
# [12] = system: ACHN renal
# [13] = system: UACC-62 melanoma
# [14] = system: LOX IMVI melanoma
# [15] = system: A549 NSCLC
# [16] = system: OVCAR-5 ovarian
# [17] = system: IGROV1 ovarian
# [18] = system: OVCAR-4 ovarian
# [19] = system: T-47D breast
# [20] = system: BT-549 breast
# [21] = system: NCI-H226 lung
# [22] = system: SW-620 colon
# [23] = system: SK-MEL-5 melanoma
# [24] = system: DU-145 prostate
# [25] = system: MDA-MB-435
# [26] = system: PC-3 prostate
# [27] = system: MOLT-4 leukemia
# [28] = system: MCF7 breast
# [29] = system: 786-0 renal
# [30] = system: KM12 colon
# [31] = system: SK-MEL-2 melanoma
# [32] = system: NCI-H522 lung
# [33] = system: HCT-15 colon
# [34] = system: HT29 colon
# [35] = system: OVCAR-8 ovarian
# [36] = system: HCT-116 colon
# [37] = system: TK-10 renal
# [38] = system: HCC-2998 colon
# [39] = system: U251 CNS
# [40] = system: HL-60(TB) leukemia
# [41] = system: SR leukemia
# [42] = system: NCI-H23 lung
# [43] = system: K-562 leukemia
# [44] = system: SF-539 CNS
# [45] = system: NCI/ADR-RES ovarian
# [46] = system: HS 578T breast
# [47] = system: HOP-62 NSCLC
# [48] = system: SNB-19 CNS
# [49] = system: NCI-H460 lung
# [50] = system: UO-31 renal
# [51] = system: SF-295 CNS
# [52] = system: SF-268 CNS
# [53] = system: EKVX NSCLC
# [54] = system: CAKI-1 renal
# [55] = system: RPMI-8226 leukemia
# [56] = system: MALME-3M melanoma
# [57] = system: UACC-257 melanoma
# [58] = system: SNB-75 CNS
compound,measurement,setting,value
CCN(CC)CCCC(C)Nc1cnc(C(=O)Nc2cccc3ccc(OC)nc23)cn1 (stereo not given),GI50,[1],2.74 µM
same,TGI,[1],8.11 µM
same,GI50,[2],6.93 µM
same,TGI,[2],21.9 µM
same,GI50,[3],1.93 µM
same,TGI,[3],3.71 µM
same,GI50,[4],15 µM
same,TGI,[4],28.4 µM
same,GI50,[5],1.77 µM
same,TGI,[5],3.72 µM
same,GI50,[6],4.52 µM
same,TGI,[6],18 µM
same,GI50,[7],1.73 µM
same,TGI,[7],3.45 µM
same,GI50,[8],1.25 µM
same,TGI,[8],2.86 µM
same,GI50,[9],1.74 µM
same,TGI,[9],3.13 µM
same,GI50,[10],1.77 µM
same,TGI,[10],3.46 µM
same,GI50,[11],2.24 µM
same,TGI,[11],5.24 µM
same,GI50,[12],1.83 µM
same,TGI,[12],3.48 µM
same,GI50,[13],1.79 µM
same,TGI,[13],3.21 µM
same,GI50,[14],1.77 µM
same,TGI,[14],3.34 µM
same,GI50,[15],2.6 µM
same,TGI,[15],7.02 µM
same,GI50,[16],1.81 µM
same,TGI,[16],3.78 µM
same,GI50,[17],2.09 µM
same,TGI,[17],4.91 µM
same,GI50,[18],1.98 µM
same,TGI,[18],4.62 µM
same,GI50,[19],1.85 µM
same,TGI,[19],3.95 µM
same,GI50,[20],1.95 µM
same,TGI,[20],4.47 µM
same,GI50,[21],7.52 µM
same,TGI,[21],21.7 µM
same,GI50,[22],1.78 µM
same,TGI,[22],3.43 µM
same,GI50,[23],1.77 µM
same,TGI,[23],3.21 µM
same,GI50,[24],4.24 µM
same,TGI,[24],15.3 µM
same,GI50,[25],1.77 µM
same,TGI,[25],3.24 µM
same,GI50,[26],2.83 µM
same,TGI,[26],10.5 µM
same,GI50,[27],2.04 µM
same,TGI,[27],4.67 µM
same,GI50,[28],1.67 µM
same,TGI,[28],3.41 µM
same,GI50,[29],1.64 µM
same,TGI,[29],3.21 µM
same,GI50,[30],3.17 µM
same,TGI,[30],11.7 µM
same,GI50,[31],1.85 µM
same,TGI,[31],3.68 µM
same,GI50,[32],1.89 µM
same,TGI,[32],3.79 µM
same,GI50,[33],1.95 µM
same,TGI,[33],4.31 µM
same,GI50,[34],1.78 µM
same,TGI,[34],3.51 µM
same,GI50,[35],2.74 µM
same,TGI,[35],8.41 µM
same,GI50,[36],1.62 µM
same,TGI,[36],3.44 µM
same,GI50,[37],15.4 µM
same,TGI,[37],29.7 µM
same,GI50,[38],1.82 µM
same,TGI,[38],3.46 µM
same,GI50,[39],1.81 µM
same,TGI,[39],3.52 µM
same,GI50,[40],1.92 µM
same,TGI,[40],3.9 µM
same,GI50,[41],2.27 µM
same,TGI,[41],7.36 µM
same,GI50,[42],2.44 µM
same,TGI,[42],5.63 µM
same,GI50,[43],1.8 µM
same,TGI,[43],6.2 µM
same,GI50,[44],1.79 µM
same,TGI,[44],3.21 µM
same,GI50,[45],2.62 µM
same,TGI,[45],7.95 µM
same,GI50,[46],11 µM
same,TGI,[46],28.5 µM
same,GI50,[47],1.83 µM
same,TGI,[47],3.71 µM
same,GI50,[48],3.11 µM
same,TGI,[48],10.9 µM
same,GI50,[49],2.12 µM
same,TGI,[49],4.66 µM
same,GI50,[50],1.46 µM
same,TGI,[50],2.82 µM
same,GI50,[51],15 µM
same,TGI,[51],29.9 µM
same,GI50,[52],11.2 µM
same,TGI,[52],25.8 µM
same,GI50,[53],2.52 µM
same,TGI,[53],8.36 µM
same,GI50,[54],1.77 µM
same,TGI,[54],3.76 µM
same,GI50,[55],2.45 µM
same,TGI,[55],6.15 µM
same,GI50,[56],1.75 µM
same,TGI,[56],3.22 µM
same,GI50,[57],2.43 µM
same,TGI,[57],5.98 µM
same,GI50,[58],10.6 µM
same,TGI,[58],22.8 µM
CCc1oc2ccccc2c1C(=O)c1cc(I)c(O)c(I)c1,GI50,[1],2.05 µM
same,TGI,[1],15.4 µM
same,GI50,[2],1.04 µM
same,TGI,[2],7.73 µM
same,GI50,[3],1.24 µM
same,TGI,[3],5.3 µM
same,GI50,[4],5.46 µM
same,TGI,[4],18.4 µM
same,GI50,[5],4.18 µM
same,TGI,[5],17.8 µM
same,GI50,[6],3.84 µM
same,TGI,[6],17 µM
same,GI50,[7],5.64 µM
same,TGI,[7],20.8 µM
same,GI50,[8],2.98 µM
same,TGI,[8],16 µM
same,GI50,[9],8.45 µM
same,TGI,[9],21.6 µM
same,GI50,[10],5.05 µM
same,TGI,[10],18.7 µM
same,GI50,[11],2.04 µM
same,TGI,[11],5.12 µM
same,GI50,[12],4.87 µM
same,TGI,[12],18.2 µM
same,GI50,[13],3.32 µM
same,TGI,[13],16.8 µM
same,GI50,[14],3.51 µM
same,TGI,[14],17.1 µM
same,GI50,[15],3.61 µM
same,TGI,[15],17.6 µM
same,GI50,[16],11.4 µM
same,TGI,[16],25.1 µM
same,GI50,[18],5.07 µM
same,TGI,[18],18.1 µM
same,GI50,[19],4.56 µM
same,TGI,[19],20.8 µM
same,GI50,[20],2.79 µM
same,TGI,[20],13.9 µM
same,GI50,[21],10.6 µM
same,TGI,[21],27 µM
same,GI50,[22],2.39 µM
same,TGI,[22],12.6 µM
same,GI50,[23],3.2 µM
same,TGI,[23],13.9 µM
same,GI50,[24],2.37 µM
same,TGI,[24],7.4 µM
same,GI50,[25],0.327 µM
same,TGI,[25],1.4 µM
same,GI50,[26],3.75 µM
same,TGI,[26],19.5 µM
same,GI50,[27],3.33 µM
same,TGI,[27],26.6 µM
same,GI50,[28],4.02 µM
same,TGI,[28],14.7 µM
same,GI50,[29],3.76 µM
same,TGI,[29],15.3 µM
same,GI50,[30],1.62 µM
same,TGI,[30],13 µM
same,GI50,[31],7.42 µM
same,TGI,[31],28 µM
same,GI50,[32],1.84 µM
same,TGI,[32],12.9 µM
same,GI50,[33],2.26 µM
same,TGI,[33],14.1 µM
same,GI50,[34],3.61 µM
same,TGI,[34],14.5 µM
same,GI50,[35],4.9 µM
same,TGI,[35],28.5 µM
same,GI50,[36],2.91 µM
same,TGI,[36],12 µM
same,GI50,[37],9.81 µM
same,TGI,[37],23.4 µM
same,GI50,[38],4.84 µM
same,TGI,[38],17.5 µM
same,GI50,[39],4.4 µM
same,TGI,[39],18.3 µM
same,GI50,[40],1.62 µM
same,TGI,[40],8.74 µM
same,GI50,[41],0.568 µM
same,TGI,[41],17.9 µM
same,GI50,[42],3.91 µM
same,TGI,[42],17.4 µM
same,GI50,[43],0.726 µM
same,TGI,[43],18.8 µM
same,GI50,[44],2.28 µM
same,TGI,[44],10.4 µM
same,GI50,[45],1.49 µM
same,TGI,[45],5.25 µM
same,GI50,[46],2.22 µM
same,TGI,[46],7.41 µM
same,GI50,[47],5.85 µM
same,TGI,[47],20.3 µM
same,GI50,[48],5.19 µM
same,TGI,[48],18.9 µM
same,GI50,[49],2.63 µM
same,TGI,[49],8.94 µM
same,GI50,[50],1.82 µM
same,TGI,[50],10.5 µM
same,GI50,[51],2.05 µM
same,TGI,[51],7.65 µM
same,GI50,[52],2.89 µM
same,TGI,[52],15.2 µM
same,GI50,[53],3.59 µM
same,TGI,[53],15.4 µM
same,GI50,[54],2.3 µM
same,TGI,[54],10.8 µM
same,GI50,[55],2.33 µM
same,TGI,[55],30.5 µM
same,GI50,[56],1.41 µM
same,TGI,[56],7.9 µM
same,GI50,[57],6.13 µM
same,TGI,[57],21.1 µM
same,GI50,[58],1.54 µM
same,TGI,[58],6.43 µM

# — PubChem BioAssay (NCI)
